# Test results as given in ChEMBL document CHEMBL4422616, “The P-glycoprotein inhibitor diltiazem-like 8-(4-chlorophenyl)-5-methyl-8-[(2Z)-pent-2-en-1-yloxy]-8H-[1,2,4]oxadiazolo[3,4-c][1,4]thiazin-3-one inhibits esterase activity and H3 histone acetylation” (Eur J Med Chem, 2019).
# Activity calls are given as the source filed them. The calls are words filed in the database; no cut-off is given here.
# How the values were obtained:
# [1] = target: Acetylcholinesterase (Homo sapiens) (UniProt P22303); assay: Inhibition of AChE (unknown origin) assessed as residual activity at 100 uM using acetylthiocholine chloride as substrate measured for 10 mins (reference value: 100 +/- 1.2%)
# Sequence of Acetylcholinesterase (Homo sapiens) (P22303 whole entry): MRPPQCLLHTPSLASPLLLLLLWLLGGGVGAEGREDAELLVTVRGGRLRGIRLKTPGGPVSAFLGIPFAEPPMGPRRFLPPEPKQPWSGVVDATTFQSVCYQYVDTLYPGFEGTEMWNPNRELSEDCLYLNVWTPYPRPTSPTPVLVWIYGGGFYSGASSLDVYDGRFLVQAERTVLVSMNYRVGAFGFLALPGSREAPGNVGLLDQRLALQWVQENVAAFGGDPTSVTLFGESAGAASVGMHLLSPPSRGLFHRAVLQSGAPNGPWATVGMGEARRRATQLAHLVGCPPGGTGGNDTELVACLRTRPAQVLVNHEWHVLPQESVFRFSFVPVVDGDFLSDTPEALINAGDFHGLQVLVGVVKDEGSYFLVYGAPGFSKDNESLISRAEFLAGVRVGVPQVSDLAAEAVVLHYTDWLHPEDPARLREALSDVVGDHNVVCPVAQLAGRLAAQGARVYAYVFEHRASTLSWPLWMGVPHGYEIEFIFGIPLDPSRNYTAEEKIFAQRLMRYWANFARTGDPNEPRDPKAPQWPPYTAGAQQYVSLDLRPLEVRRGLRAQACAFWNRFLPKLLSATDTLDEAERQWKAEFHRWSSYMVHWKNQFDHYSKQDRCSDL
# HEK293 [2] = assay: Cytotoxicity against HEK293 cells assessed as reduction in cell viability up to 100 uM after 48 hrs by MTT assay; format: cell-based; settings: human, hek293, 48 h
# HepG2 [3] = assay: Cytotoxicity against human HepG2 cells assessed as morphological alteration up to 100 uM after 48 hrs by MTT assay; format: cell-based; settings: hepg2, 48 h
# HEK293 [4] = assay: Inhibition of esterase in HEK293 cells at 100 uM after 1 hr by calcein-AM dye-based fluorescence assay relative to control; format: cell-based; settings: Homo sapiens
# [5] = target: Acetylcholinesterase (Homo sapiens) (UniProt P22303); assay: Inhibition of AChE (unknown origin) assessed as residual activity at 50 uM using acetylthiocholine chloride as substrate measured for 10 mins (reference value: 100 +/- 1.2%)
# HepG2 [6] = assay: Inhibition of HAT in human HepG2 cells assessed as decrease in histone H3 acetylation at Lys27 residues at 100 uM incubated for 48 hrs by Western blot analysis relative to control; format: cell-based
# HepG2 [7] = assay: Cytotoxicity against human HepG2 cells assessed as reduction in cell viability up to 100 uM after 48 hrs by MTT assay; format: cell-based; settings: hepg2, 48 h
# [8] = target: Acetylcholinesterase (Homo sapiens) (UniProt P22303); assay: Inhibition of AChE (unknown origin) assessed as residual activity at 10 uM using acetylthiocholine chloride as substrate measured for 10 mins (reference value: 100 +/- 1.2%)
# HepG2 [9] = assay: Cytotoxicity against human HepG2 cells assessed as reduction in cell viability at 500 uM after 24 to 48 hrs by MTT assay relative to control; format: cell-based; settings: hepg2, 500 µM
# HEK293 [10] = assay: Inhibition of HAT in HEK293 cells assessed as decrease in histone H3 acetylation at Lys27 residues at 100 uM incubated for 48 hrs by Western blot analysis relative to control; format: cell-based; settings: Homo sapiens
# HEK293 [11] = assay: Inhibition of HAT in HEK293 cells assessed as decrease in histone H3 acetylation at Lys27 residues at 100 uM incubated for 48 hrs in presence of TSA by Western blot analysis; format: cell-based; settings: Homo sapiens
# [12] = target: Acetylcholinesterase (Homo sapiens) (UniProt P22303); assay: Inhibition of AChE (unknown origin) using acetylthiocholine chloride as substrate measured for 10 mins
# HEK293 [13] = assay: Cytotoxicity against HEK293 cells assessed as reduction in cell viability at 500 uM after 24 to 48 hrs by MTT assay relative to control; format: cell-based; settings: human, hek293, 500 µM
# HepG2 [14] = assay: Inhibition of HAT in human HepG2 cells assessed as decrease in histone H3 acetylation at Lys27 residues at 100 uM incubated for 48 hrs in presence of TSA by Western blot analysis; format: cell-based
# HepG2 [15] = assay: Inhibition of esterase in human hepG2 cells at 100 uM after 1 hr by calcein-AM dye-based fluorescence assay relative to control; format: cell-based
# [16] = target: ATP-binding cassette sub-family C member 6 (Homo sapiens, UniProt O95255); assay: Inhibition of ABCC6 (unknown origin) expressed in HEK293 cells assessed as increase in doxorubicin efflux at 100 uM after 30 mins by fluorescence assay; format: cell-based; settings: hek293, 0.5 h
# Sequence of ATP-binding cassette sub-family C member 6 (O95255 whole entry): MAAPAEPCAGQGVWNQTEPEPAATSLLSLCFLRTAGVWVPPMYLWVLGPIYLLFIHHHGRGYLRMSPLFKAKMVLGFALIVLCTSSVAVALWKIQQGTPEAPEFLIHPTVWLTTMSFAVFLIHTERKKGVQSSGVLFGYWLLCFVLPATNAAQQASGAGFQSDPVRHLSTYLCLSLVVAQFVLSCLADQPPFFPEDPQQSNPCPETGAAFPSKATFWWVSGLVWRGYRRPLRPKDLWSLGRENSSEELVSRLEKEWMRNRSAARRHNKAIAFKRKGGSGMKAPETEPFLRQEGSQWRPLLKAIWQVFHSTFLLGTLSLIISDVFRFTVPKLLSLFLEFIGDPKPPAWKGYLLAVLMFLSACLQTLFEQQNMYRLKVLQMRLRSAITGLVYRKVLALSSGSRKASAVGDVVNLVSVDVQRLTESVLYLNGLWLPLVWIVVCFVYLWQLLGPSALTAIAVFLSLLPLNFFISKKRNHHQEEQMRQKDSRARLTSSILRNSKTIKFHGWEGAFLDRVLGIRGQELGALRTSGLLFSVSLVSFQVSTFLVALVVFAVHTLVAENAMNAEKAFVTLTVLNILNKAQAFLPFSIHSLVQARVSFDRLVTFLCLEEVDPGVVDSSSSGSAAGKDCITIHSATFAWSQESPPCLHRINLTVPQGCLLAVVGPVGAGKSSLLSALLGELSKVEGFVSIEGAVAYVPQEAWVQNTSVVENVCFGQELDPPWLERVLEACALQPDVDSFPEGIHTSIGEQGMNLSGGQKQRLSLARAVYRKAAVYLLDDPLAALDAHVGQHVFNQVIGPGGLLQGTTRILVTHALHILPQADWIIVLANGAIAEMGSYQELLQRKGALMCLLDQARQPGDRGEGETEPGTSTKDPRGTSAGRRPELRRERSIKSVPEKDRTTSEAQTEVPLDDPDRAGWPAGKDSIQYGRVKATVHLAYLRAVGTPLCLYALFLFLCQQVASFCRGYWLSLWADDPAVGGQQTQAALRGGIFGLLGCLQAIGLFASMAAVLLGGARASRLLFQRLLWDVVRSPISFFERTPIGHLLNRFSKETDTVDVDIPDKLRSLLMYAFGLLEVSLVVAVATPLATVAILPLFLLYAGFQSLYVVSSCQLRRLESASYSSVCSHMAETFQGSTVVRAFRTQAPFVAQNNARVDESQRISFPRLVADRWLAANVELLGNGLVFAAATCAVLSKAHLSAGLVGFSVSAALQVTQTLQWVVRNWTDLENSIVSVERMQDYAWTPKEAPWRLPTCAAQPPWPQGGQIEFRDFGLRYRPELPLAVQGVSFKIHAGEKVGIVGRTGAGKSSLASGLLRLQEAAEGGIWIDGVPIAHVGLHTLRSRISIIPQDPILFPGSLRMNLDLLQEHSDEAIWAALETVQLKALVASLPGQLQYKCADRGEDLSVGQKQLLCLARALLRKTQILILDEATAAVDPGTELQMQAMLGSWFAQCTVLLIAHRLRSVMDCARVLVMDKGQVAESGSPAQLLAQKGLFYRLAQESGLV
# HEK293 [17] = assay: Cytotoxicity against HEK293 cells assessed as morphological alteration up to 100 uM after 48 hrs by MTT assay; format: cell-based; settings: human, hek293, 48 h
compound,measurement,setting,value
CC/C=C\COC1(c2ccc(Cl)cc2)SC=C(C)n2c1noc2=O (configuration not stated),Activity,[1],56%
same,Activity,HEK293 [2],Non-Toxic
same,Activity,HepG2 [3],Non-Toxic
same,inhibition,HEK293 [4],60%
same,Activity,[5],61%
same,inhibition,HepG2 [6],56%
same,Activity,HepG2 [7],Non-Toxic
same,Activity,[8],80%
same,Activity,HepG2 [9],50%
same,inhibition,HEK293 [10],80%
same,inhibition,HEK293 [11],Active
same,inhibition,[12],Dose-dependent effect
same,Activity,HEK293 [13],50%
same,inhibition,HepG2 [14],Active
same,inhibition,HepG2 [15],50%
same,inhibition (INH),[16],Active
same,Activity,HEK293 [17],Non-Toxic
